One experiment concerns the target human TRPML1 (Homo sapiens, UniProt Q9GZU1). As to the kind of experiment: Fluorescent TRPML1 assay (Fluo4-AM calcium fluorescence, HEK-293 Trex cells). In kind it is cell-based. As for the experimental part:
(§1) HEK-293 Trex cells were stably transfected with a construct consisting of the human coding sequence for TRPML1 cloned into the tet-inducible plasmid pCDNA5 T/O. Mutations were introduced into the TRPML1 sequence to facilitate expression on the cell surface (Silvia Vergarajauregui, Rosa Puertollano Traffic. 2006 March; 7 (3): 337-353). Briefly, the cells are cultured in 150 mm round tissue culture dishes containing 20 mL of media. The day before the assay the cells are rinsed with DPBS —Ca—Mg and then treated briefly with Trypsin-EDTA. The Trypsin-EDTA is diluted with growth media, and cells are counted. 38×10^6 cells are re-plated into 150 mm round tissue culture dishes in media containing 0.5 ug/mL doxycycline to induce expression of hTRPML1.
(§2) The day of the experiment cells are lifted from the plates as above and collected by centrifugation. The cells are then suspended in dye loading buffer consisting of Ringer's solution supplemented with 0.1% Pluronic Acid and 1 micromolar Fluo4-AM dye. Cells are loaded for ˜60 minutes in the dark with occasional mixing. The cells are collected by centrifugation, the loading media aspirated, and the cells resuspended in 25 mL Ringer's solution and incubated ˜60 minutes in the dark. The cells are again collected by centrifugation, rinsed in Ringer's Solution and resuspended to 0.2×10^6 cells/mL in modified Ringer's solution containing 10 mM calcium.
(§3) Compounds are dissolved to a concentration of 10 millimolar with DMSO. Compound plates are created by dispensing compounds into 384 well black wall clear bottom plates (Greiner 781091). Positive and negative controls are included on each plate. Typically, different amounts of each compound are tested ranging from 100 nanoMoles (20 micromolar final concentration) decreasing in half-log steps to 31 picoMoles (6 nanomolar final concentration). Each concentration is typically tested in triplicate.
(§4) 50 microliters of dye-loaded cells are dispensed into each well of the compound assay plate created above. The fluorescence in each well is then determined with an excitation wavelength of 480 nm and an emission wavelength of 540 nm using either a Molecular Devices SpectraMax multimode plate reader or a Hamamatsu FDSS/uCell plate imager.
(§5) The resulting fluorescence for each well is exported as an ascii file and loaded into our LIMS for analysis. The percent activity of each compound at each concentration is determined by comparison to the positive and negative control wells included in each plate.
(§6) EC50 values were calculated using a non-linear regression of Prism. In the table, “A” indicates an EC50 of less than 100 nM, “B” indicates an EC50 range from 100 nM to 500 nM; “C” indicates an EC50 range from 500 nM to 2 μM; and “D” indicates an EC50 greater than 2 μM.

The next experiment deals with T1, TRPML3 (Homo sapiens, UniProt Q8TDD5).
T1 construct: expressed in transfected cells
T1 sequence (Q8TDD5 1-553): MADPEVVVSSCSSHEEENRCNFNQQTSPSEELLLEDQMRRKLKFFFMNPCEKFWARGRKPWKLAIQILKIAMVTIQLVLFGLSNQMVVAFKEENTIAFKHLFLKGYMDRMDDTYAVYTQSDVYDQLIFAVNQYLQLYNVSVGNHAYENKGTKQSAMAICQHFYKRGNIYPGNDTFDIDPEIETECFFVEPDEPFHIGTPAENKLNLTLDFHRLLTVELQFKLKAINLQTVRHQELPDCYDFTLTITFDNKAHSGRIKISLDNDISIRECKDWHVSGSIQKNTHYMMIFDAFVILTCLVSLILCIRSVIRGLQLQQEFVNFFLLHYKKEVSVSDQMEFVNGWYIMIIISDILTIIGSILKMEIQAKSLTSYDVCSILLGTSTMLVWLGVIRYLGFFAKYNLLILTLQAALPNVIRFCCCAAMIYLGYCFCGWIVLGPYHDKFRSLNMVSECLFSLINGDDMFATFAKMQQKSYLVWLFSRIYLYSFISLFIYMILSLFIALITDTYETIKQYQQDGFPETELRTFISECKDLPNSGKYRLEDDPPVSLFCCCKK
As to the kind of experiment: Fluorescent TRPML3 assay (as for TRPML1). The format is cell-based. As to conditions: Table 3, compounds 101-177. As for the experimental part:
as §1, §2, §3, §4, §5
Assays for TRPML2 and TRPML3 were performed as above for TRPML1, by substituting the appropriate TRPML2 or TRPML3 subtype for the TRPML1.
as §6

Sequence of human TRPML1 (Q9GZU1 whole entry L15A/L16A/L577A/L578A, form open): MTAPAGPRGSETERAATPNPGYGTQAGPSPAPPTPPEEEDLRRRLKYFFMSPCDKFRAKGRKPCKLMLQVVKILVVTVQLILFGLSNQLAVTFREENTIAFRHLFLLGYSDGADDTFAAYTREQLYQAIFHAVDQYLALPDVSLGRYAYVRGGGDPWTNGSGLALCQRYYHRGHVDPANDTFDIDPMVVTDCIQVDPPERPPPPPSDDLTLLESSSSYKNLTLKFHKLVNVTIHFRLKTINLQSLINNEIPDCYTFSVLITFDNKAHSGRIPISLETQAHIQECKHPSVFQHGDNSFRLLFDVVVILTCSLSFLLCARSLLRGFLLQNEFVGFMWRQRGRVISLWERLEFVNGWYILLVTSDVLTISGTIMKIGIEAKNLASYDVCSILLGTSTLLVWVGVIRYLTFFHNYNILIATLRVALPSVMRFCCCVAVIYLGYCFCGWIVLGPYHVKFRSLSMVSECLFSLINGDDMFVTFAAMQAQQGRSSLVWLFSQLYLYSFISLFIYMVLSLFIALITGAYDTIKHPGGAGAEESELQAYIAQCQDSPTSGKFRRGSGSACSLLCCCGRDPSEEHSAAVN

The EC50 is the concentration giving half of the maximal effect. `CC(C)C(=O)N1C[C@H](C)N(c2ncnc3c2c(-c2ccccc2F)cn3-c2cc(C#N)ccn2)C[C@H]1C` (single isomer, unassigned) [Compound 233]: the EC50 at human TRPML1 (Table 3, compounds 201-283) was less than 100 nM.

As to `CC(C)C(=O)N1C[C@H](C)N(c2ncnc3c2c(-c2ccccc2F)cn3-c2cc(C#N)ccn2)C[C@H]1C` (single isomer, unassigned) [Compound 234], the concentration giving a half-maximal response (EC50) at human TRPML1 (Table 3, compounds 201-283) was less than 100 nM.

On to `CC(C)C(=O)N1C[C@H](C)N(c2ncnc3c2c(-c2ccccc2F)cn3-c2cc(C#N)ccn2)C[C@H]1C` (single isomer, unassigned) [Compound 281], for which the EC50 at human TRPML1 (Table 3, compounds 201-283) lay within 100 to 500 nM.

`CC(C)C(=O)N1CC2(CCN(c3ncnc4c3c(-c3ccccc3F)cn4-c3cc(C#N)ccn3)C2)C1` [Compound 101, 2-(5-(2-fluorophenyl)-4-(2-isobutyryl-2,6-diazaspiro[3.4]octan-6-yl)-7H-pyrrolo[2,3-d]pyrimidin-7-yl)isonicotinonitrile]: the EC50 at human TRPML1 (Table 3, compounds 101-177) is more than 2000 nM; on TRPML3, 500 to 2000 nM.

As for `C[C@H]1CN(C(=O)C2CC2)CCN1c1ncnc2c1c(-c1ccccc1F)cn2-c1cc(C#N)ccn1` [Compound 105, (S)-2-(4-(4-(cyclopropanecarbonyl)-2-methylpiperazin-1-yl)-5-(2-fluorophenyl)-7H-pyrrolo[2,3-d]pyrimidin-7-yl)isonicotinonitrile], the EC50 on human TRPML1 (Table 3, compounds 101-177) is less than 100 nM; at TRPML3, less than 100 nM.

Take `CC(C)C(=O)N1CCN(c2ncnc3c2c(-c2ccccc2F)cn3-c2cc(C#N)ccn2)CC1` [Compound 106, 2-(5-(2-fluorophenyl)-4-(4-isobutyrylpiperazin-1-yl)-7H-pyrrolo[2,3-d]pyrimidin-7-yl)isonicotinonitrile]: the EC50 is 100 to 500 nM on human TRPML1 (Table 3, compounds 101-177) and less than 100 nM at TRPML3.

For `N#Cc1ccnc(-n2cc(-c3ccccc3F)c3c(N4CCN(C(=O)C5CC5)CC4)ncnc32)c1` [Compound 110, 2-(4-(4-(cyclopropanecarbonyl)piperazin-1-yl)-5-(2-fluorophenyl)-7H-pyrrolo[2,3-d]pyrimidin-7-yl)isonicotinonitrile], the EC50 fell in the range of 100 to 500 nM on human TRPML1 (Table 3, compounds 101-177) and 100 to 500 nM on TRPML3.

Turning to `C[C@@H]1CN(c2ncnc3c2c(-c2ccccc2F)cn3-c2cc(C#N)ccn2)CCN1C(=O)C1CC1` [Compound 111, (R)-2-(4-(4-(cyclopropanecarbonyl)-3-methylpiperazin-1-yl)-5-(2-fluorophenyl)-7H-pyrrolo[2,3-d]pyrimidin-7-yl)isonicotinonitrile], the EC50 on human TRPML1 (Table 3, compounds 101-177) is less than 100 nM.

With `C[C@H]1CN(C(=O)C2(C)CC2)CCN1c1ncnc2c1c(-c1ccccc1F)cn2-c1cc(C#N)ccn1` [Compound 112, (S)-2-(5-(2-fluorophenyl)-4-(2-methyl-4-(1-methylcyclopropane-1-carbonyl)piperazin-1-yl)-7H-pyrrolo[2,3-d]pyrimidin-7-yl)isonicotinonitrile], the EC50 on human TRPML1 (Table 3, compounds 101-177) is less than 100 nM; on TRPML3, less than 100 nM.

For `CC(F)C(=O)N1CCN(c2ncnc3c2c(-c2ccccc2F)cn3-c2cc(C#N)ccn2)[C@@H](C)C1` (stereo partly drawn) [Compound 113, 2-(5-(2-fluorophenyl)-4-((2S)-4-(2-fluoropropanoyl)-2-methylpiperazin-1-yl)-7H-pyrrolo[2,3-d]pyrimidin-7-yl)isonicotinonitrile], the EC50 is less than 100 nM at human TRPML1 (Table 3, compounds 101-177) and 100 to 500 nM on TRPML3.

`C[C@H]1CN(C(=O)C(C)(C)F)CCN1c1ncnc2c1c(C1CC1)cn2-c1cc(C#N)ccn1` [Compound 114, (S)-2-(5-cyclopropyl-4-(4-(2-fluoro-2-methylpropanoyl)-2-methylpiperazin-1-yl)-7H-pyrrolo[2,3-d]pyrimidin-7-yl)isonicotinonitrile]: the concentration for a half-maximal effect (EC50) on human TRPML1 (Table 3, compounds 101-177) was less than 100 nM; at TRPML3, less than 100 nM.

As for `CC(C)C(=O)N1CCN(c2ncnc3c2c(-c2ccccn2)cn3-c2cc(C#N)ccn2)[C@@H](C)C1` [Compound 116, (S)-2-(4-(4-isobutyryl-2-methylpiperazin-1-yl)-5-(pyridin-2-yl)-7H-pyrrolo[2,3-d]pyrimidin-7-yl)isonicotinonitrile], the EC50 on human TRPML1 (Table 3, compounds 101-177) is 500 to 2000 nM; on TRPML3 it was 500 to 2000 nM.

In the case of `CC(C)C(=O)N1CCN(c2ncnc3c2c(-c2ccccc2)cn3-c2cc(C#N)ccn2)C[C@H]1C` [Compound 119, (R)-2-(4-(4-isobutyryl-3-methylpiperazin-1-yl)-5-phenyl-7H-pyrrolo[2,3-d]pyrimidin-7-yl)isonicotinonitrile], the 50% effective concentration (EC50) is less than 100 nM on human TRPML1 (Table 3, compounds 101-177) and less than 100 nM on TRPML3.

As for `C[C@H]1CN(C(=O)C2CC2)CCN1c1ncnc2c1c(-c1ccccc1)cn2-c1cc(C#N)ccn1` [Compound 123, (S)-2-(4-(4-(cyclopropanecarbonyl)-2-methylpiperazin-1-yl)-5-phenyl-7H-pyrrolo[2,3-d]pyrimidin-7-yl)isonicotinonitrile], the EC50 fell in the range of 100 to 500 nM on human TRPML1 (Table 3, compounds 101-177) and 100 to 500 nM at TRPML3.

Consider `C[C@@H]1CN(c2ncnc3c2c(-c2ccccc2)cn3-c2cc(C#N)ccn2)CCN1C(=O)C1CC1` [Compound 124, (R)-2-(4-(4-(cyclopropanecarbonyl)-3-methylpiperazin-1-yl)-5-phenyl-7H-pyrrolo[2,3-d]pyrimidin-7-yl)isonicotinonitrile], for which the EC50 on human TRPML1 (Table 3, compounds 101-177) lay in the range of 100 to 500 nM; at TRPML3, 100 to 500 nM.

On to `C[C@H]1CN(C(=O)C(C)(C)F)CCN1c1ncnc2c1c(-c1ccccc1F)cn2-c1cc(C#N)ccn1` [Compound 125, (S)-2-(4-(4-(2-fluoro-2-methylpropanoyl)-2-methylpiperazin-1-yl)-5-(2-fluorophenyl)-7H-pyrrolo[2,3-d]pyrimidin-7-yl)isonicotinonitrile], for which the EC50 was less than 100 nM on human TRPML1 (Table 3, compounds 101-177) and less than 100 nM on TRPML3.

On to `C[C@H]1CN(C(=O)C2(C)CC2)CCN1c1ncnc2c1c(-c1ccccn1)cn2-c1cc(C#N)ccn1` [Compound 127, (S)-2-(4-(2-methyl-4-(1-methylcyclopropane-1-carbonyl)piperazin-1-yl)-5-(pyridin-2-yl)-7H-pyrrolo[2,3-d]pyrimidin-7-yl)isonicotinonitrile], for which the EC50 was 500 to 2000 nM on human TRPML1 (Table 3, compounds 101-177) and more than 2000 nM at TRPML3.

In the case of `C[C@@H]1CN(c2ncnc3c2c(C2CC2)cn3-c2cc(C#N)ccn2)CCN1C(=O)C1(F)CC1` [Compound 129, (R)-2-(5-cyclopropyl-4-(4-(1-fluorocyclopropane-1-carbonyl)-3-methylpiperazin-1-yl)-7H-pyrrolo[2,3-d]pyrimidin-7-yl)isonicotinonitrile], the EC50 on human TRPML1 (Table 3, compounds 101-177) is less than 100 nM; at TRPML3, 100 to 500 nM.

`CC(C)C(=O)N1CCN(c2ncnc3c2c(-c2ccccn2)cn3-c2cc(C#N)ccn2)C[C@H]1C` [Compound 132, (R)-2-(4-(4-isobutyryl-3-methylpiperazin-1-yl)-5-(pyridin-2-yl)-7H-pyrrolo[2,3-d]pyrimidin-7-yl)isonicotinonitrile]: the concentration giving a half-maximal response (EC50) on human TRPML1 (Table 3, compounds 101-177) was in the range of 500 to 2000 nM; on TRPML3, 500 to 2000 nM.

For `C[C@H]1CN(C(=O)CCC(F)(F)F)CCN1c1ncnc2c1c(-c1ccccc1F)cn2-c1cc(C#N)ccn1` [Compound 135, (S)-2-(5-(2-fluorophenyl)-4-(2-methyl-4-(4,4,4-trifluorobutanoyl)piperazin-1-yl)-7H-pyrrolo[2,3-d]pyrimidin-7-yl)isonicotinonitrile], the EC50 on human TRPML1 (Table 3, compounds 101-177) was less than 100 nM; at TRPML3 it was 100 to 500 nM.

As for `CC(C)C(=O)N1C[C@H](C)N(c2ncnc3c2c(C2CCC2)cn3-c2cc(C#N)ccn2)C[C@H]1C` [Compound 238, 2-(5-cyclobutyl-4-((2S,5R)-4-isobutyryl-2,5-dimethylpiperazin-1-yl)-7H-pyrrolo[2,3-d]pyrimidin-7-yl)isonicotinonitrile], the EC50 on human TRPML1 (Table 3, compounds 201-283) lay in the range of 100 to 500 nM.

Source of the values: patent publication US20240398812A1 (Caraway Therapeutics, Inc., priority 2021, published 2024).
